In US20250325687A1, “CONJUGATE COMPRISING TOLL-LIKE RECEPTOR AGONIST” (MABSOFT THERAPEUTICS (SHANGHAI) CO., LTD., priority 2022, published 2025):

Tests used:
[1] = target: T1, hTLR7 (human Toll-like receptor 7) (Homo sapiens, UniProt Q9NYK1); experiment: hTLR7 cell assay (HEK-Blue hTLR7 reporter cells); format: cell-based; details: 24 hours, OD 650 nm
T1 construct: host or cells: HEK-Blue hTLR7 (HEK293-derived reporter cells)
T1 sequence (Q9NYK1 27-1049): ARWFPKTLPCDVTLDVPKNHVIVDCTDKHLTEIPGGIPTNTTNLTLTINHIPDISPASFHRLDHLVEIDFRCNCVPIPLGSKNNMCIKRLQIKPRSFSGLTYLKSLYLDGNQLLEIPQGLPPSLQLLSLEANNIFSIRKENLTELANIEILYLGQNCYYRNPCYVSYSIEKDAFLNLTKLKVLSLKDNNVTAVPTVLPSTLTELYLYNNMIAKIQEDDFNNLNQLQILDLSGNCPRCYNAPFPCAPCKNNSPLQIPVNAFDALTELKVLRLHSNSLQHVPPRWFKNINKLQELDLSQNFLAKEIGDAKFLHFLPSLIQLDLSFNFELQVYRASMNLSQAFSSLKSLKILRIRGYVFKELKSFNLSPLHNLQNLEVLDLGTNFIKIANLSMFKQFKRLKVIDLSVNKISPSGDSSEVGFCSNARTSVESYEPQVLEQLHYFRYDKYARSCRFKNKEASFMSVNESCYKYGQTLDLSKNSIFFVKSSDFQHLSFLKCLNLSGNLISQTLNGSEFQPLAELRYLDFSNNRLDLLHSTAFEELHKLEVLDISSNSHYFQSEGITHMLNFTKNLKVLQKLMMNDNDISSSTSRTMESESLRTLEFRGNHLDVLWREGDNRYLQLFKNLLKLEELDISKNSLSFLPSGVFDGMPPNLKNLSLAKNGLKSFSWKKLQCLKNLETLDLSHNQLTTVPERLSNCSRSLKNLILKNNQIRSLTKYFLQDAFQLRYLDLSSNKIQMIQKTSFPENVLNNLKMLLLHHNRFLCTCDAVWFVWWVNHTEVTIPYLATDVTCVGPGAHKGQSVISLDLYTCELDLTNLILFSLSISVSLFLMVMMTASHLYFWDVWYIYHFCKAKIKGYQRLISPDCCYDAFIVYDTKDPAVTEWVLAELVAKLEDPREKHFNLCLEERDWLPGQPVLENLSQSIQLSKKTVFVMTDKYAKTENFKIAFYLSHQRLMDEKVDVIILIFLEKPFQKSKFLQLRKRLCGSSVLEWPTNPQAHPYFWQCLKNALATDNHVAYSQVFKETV
Experimental: (§1) The payload compounds of Formula (II′) were assayed to evaluate their agonistic activity on hTLR7 (human Toll-like receptor 7) and hTLR8 (human Toll-like receptor 8). Reporter cells lines (HEK-Blue hTLR7 and HEK-Blue hTLR8) were obtained from InvivoGen. Cells were cryopreserved in liquid nitrogen per supplier's instruction. Upon test, the cells were thawed, passaged and cultured in the growth media of DMEM supplemented with 10% fetal bovine serum, 1×NEAA, 1 mM Pyruvate, 2 mM glutamine, […] in the presence of the following antibiotics, as shown as Table 1. Test compounds (at desired concentrations diluted) were added to the 96-well assay plate, 0.5 μL per well. Reporter cells were harvested from the tissue culture flasks by incubation in PBS at 37° C. for two minutes after the media in the flask is removed and cells rinsed with PBS. Cells were counted and diluted in the HEK-Blue Detection media at 50000 cells/mL and incubated for 24 hours at 37° C., in a 5% CO2 humidified incubator. Then 20 μL of cell supernatant were added to the assay plate containing the 180 µL of QUANTI-Blue, incubated for 1 hour at 37° C. Optical density at 650 nm was analyzed using an Envision (Perkin Elmer) plate reader.

[2] = target: T2, hTLR8 (human Toll-like receptor 8) (Homo sapiens, UniProt Q9NR97); experiment: hTLR8 cell assay (HEK-Blue hTLR8 reporter cells); format: cell-based; details: 24 hours, OD 650 nm
T2 construct: host or cells: HEK-Blue hTLR8 (HEK293-derived reporter cells)
T2 sequence (Q9NR97 27-1041): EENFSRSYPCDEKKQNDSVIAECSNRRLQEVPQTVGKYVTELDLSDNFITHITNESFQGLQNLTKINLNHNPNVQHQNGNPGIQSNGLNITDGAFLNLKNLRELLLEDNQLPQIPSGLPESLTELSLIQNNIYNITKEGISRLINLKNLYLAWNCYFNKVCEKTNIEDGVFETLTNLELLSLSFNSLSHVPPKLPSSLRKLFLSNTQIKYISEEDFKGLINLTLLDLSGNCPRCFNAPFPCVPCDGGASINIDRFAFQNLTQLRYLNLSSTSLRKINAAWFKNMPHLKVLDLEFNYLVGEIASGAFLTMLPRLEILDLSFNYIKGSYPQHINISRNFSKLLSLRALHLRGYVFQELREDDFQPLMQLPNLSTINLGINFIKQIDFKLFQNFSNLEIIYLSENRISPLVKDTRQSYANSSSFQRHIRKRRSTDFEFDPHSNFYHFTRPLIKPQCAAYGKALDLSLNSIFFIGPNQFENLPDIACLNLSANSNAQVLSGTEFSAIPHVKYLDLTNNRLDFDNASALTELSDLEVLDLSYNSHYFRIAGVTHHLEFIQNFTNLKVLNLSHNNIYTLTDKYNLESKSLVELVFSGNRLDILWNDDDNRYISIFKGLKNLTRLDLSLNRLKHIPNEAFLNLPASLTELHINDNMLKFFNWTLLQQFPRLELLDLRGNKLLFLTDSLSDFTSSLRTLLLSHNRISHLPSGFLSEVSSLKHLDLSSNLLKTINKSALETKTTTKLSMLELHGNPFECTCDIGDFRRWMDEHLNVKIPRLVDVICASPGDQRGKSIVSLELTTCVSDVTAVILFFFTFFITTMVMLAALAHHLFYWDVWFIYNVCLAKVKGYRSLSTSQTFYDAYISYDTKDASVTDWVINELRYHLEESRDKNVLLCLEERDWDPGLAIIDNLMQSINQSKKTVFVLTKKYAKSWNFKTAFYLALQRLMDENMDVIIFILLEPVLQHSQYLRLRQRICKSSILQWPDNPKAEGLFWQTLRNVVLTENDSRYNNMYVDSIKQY
Experimental: as §1

SMILES | EC50 [1] [µM] | EC50 [2] [µM]
CCOCc1nc2c(N)nc3cc(Cc4ccc(CC(N)=O)cc4)ccc3c2n1CCNS(C)(=O)=O [Compound 35, 2-(4-((4-amino-2-(ethoxymethyl)-1-(2-(methylsulfonamido)ethyl)-1H-imidazo[4,5-c]quinolin-7-yl)methyl)phenyl)acetamide] | 1 to 10 | > 20
CCCC(C)c1nc2c(N)nc3cc(Cc4ccc(CCN)cc4)ccc3c2n1CC(C)(C)OC (centres unmarked) [Compound 48, 7-(4-(2-aminoethyl)benzyl)-1-(2-methoxy-2-methylpropyl)-2-(pentan-2-yl)-1H-imidazo[4,5-c]quinolin-4-amine] | > 10 | 5 to 20
CCOCc1nc2c(N)nc3cc(Cc4cccc(CCN)c4)ccc3c2n1CC(C)(C)O [Compound 5, 1-(4-amino-7-(3-(2-aminoethyl)benzyl)-2-(ethoxymethyl)-1H-imidazo[4,5-c]quinolin-1-yl)-2-methylpropan-2-ol] | 1 to 10 | 5 to 20
CCOCc1nc2c(N)nc3cc(Cc4ccc(CCN5CCCC5)cc4)ccc3c2n1CC(C)(C)OCCN [Compound 25, 1-(2-(2-aminoethoxy)-2-methylpropyl)-2-(ethoxymethyl)-7-(4-(2-(pyrrolidin-1-yl)ethyl)benzyl)-1H-imidazo[4,5-c]quinolin-4-amine] | > 10 | > 20
CCOCc1nc2c(N)nc3cc(Cc4ccccc4)ccc3c2n1CCCCN [Compound 39, 1-(4-aminobutyl)-7-benzyl-2-(ethoxymethyl)-1H-imidazo[4,5-c]quinolin-4-amine] | > 10 | 5 to 20
CCOCc1nc2c(N)nc3cc(Cc4ccc(C(=O)NCCN)cc4)ccc3c2n1CC(C)(C)O [Compound 6, 4-((4-amino-2-(ethoxymethyl)-1-(2-hydroxy-2-methylpropyl)-1H-imidazo[4,5-c]quinolin-7-yl)methyl)-N-(2-aminoethyl)benzamide] | > 10 | > 20
CCOCc1nc2c(N)nc3cc(Cc4ccc(CCN)cc4)ccc3c2n1Cc1ccc(CO)cc1 [Compound 45, (4-((4-amino-7-(4-(2-aminoethyl)benzyl)-2-(ethoxymethyl)-1H-imidazo[4,5-c]quinolin-1-yl)methyl)phenyl) methanol] | 1 to 10 | > 20
CCCCc1nc2c(N)nc3cc(Cc4ccccc4)ccc3c2n1CC(C)(C)OCCN [Compound 31] | < 1 | < 5
CCOCc1nc2c(N)nc3cc(Cc4ccc(CCN)cc4)ccc3c2n1CC1(O)CC1 [Compound 47, 1-((4-amino-7-(4-(2-aminoethyl)benzyl)-2-(ethoxymethyl)-1H-imidazo[4,5-c]quinolin-1-yl)methyl)cyclopropan-1-ol] | > 10 | > 20
CCOCc1nc2c(N)nc3cc(Cc4ccccc4)ccc3c2n1CC(C)(C)NCCCN [Compound 36, NJ-(1-(4-amino-7-benzyl-2-(ethoxymethyl)-1H-imidazo[4,5-c]quinolin-1-yl)-2-methylpropan-2-yl)propane-1,3-diamine] | > 10 | > 20
CCOCc1nc2c(N)nc3cc(Cc4ccccc4)ccc3c2n1CC(C)(C)NCCN [Compound 37, N1-(1-(4-amino-7-benzyl-2-(ethoxymethyl)-1H-imidazo[4,5-c]quinolin-1-yl)-2-methylpropan-2-yl)ethane-1,2-diamine] | > 10 | > 20
CCOCc1nc2c(N)nc3cc(Cc4ccc(CCN)cc4)ccc3c2n1CC(C)(C)OCCN1CCCC1 [Compound 26, 7-(4-(2-aminoethyl)benzyl)-2-(ethoxymethyl)-1-(2-methyl-2-(2-(pyrrolidin-1-yl)ethoxy)propyl)-1H-imidazo[4,5-c]quinolin-4-amine] | 1 to 10 | > 20

The remaining lines, values ahead:

EC50 [1] [µM] | EC50 [2] [µM] | SMILES
1 to 10 | 5 to 20 | CCCC(C)c1nc2c(N)nc3cc(Cc4cccc(CCCN)c4)ccc3c2n1CC(C)(C)O (centres unmarked) [Compound 14, 1-(4-amino-7-(3-(3-aminopropyl)benzyl)-2-(pentan-2-yl)-1H-imidazo[4,5-c]quinolin-1-yl)-2-methylpropan-2-ol]
< 1 | > 20 | CCOCc1nc2c(N)nc3cc(Cc4ccc(CC(N)=O)cc4)ccc3c2n1CC(C)(C)O [Compound 73, 2-(4-((4-amino-2-(ethoxymethyl)-1-(2-hydroxy-2-methylpropyl)-1H-imidazo[4,5-c]quinolin-7-yl)methyl)phenyl)acetamide]
> 10 | > 20 | CCOCc1nc2c(N)nc3cc(Cc4ccc(CCN(C)C)cc4)ccc3c2n1CC(C)(C)OCCN [Compound 24, 1-(2-(2-aminoethoxy)-2-methylpropyl)-7-(4-(2-(dimethylamino)ethyl)benzyl)-2-(ethoxymethyl)-1H-imidazo[4,5-c]quinolin-4-amine]
> 10 | > 20 | CCOCc1nc2c(N)nc3cc(Cc4ccc(CCN)cc4)ccc3c2n1CCNS(C)(=O)=O [Compound 34, N-(2-(4-amino-7-(4-(2-aminoethyl)benzyl)-2-(ethoxymethyl)-1H-imidazo[4,5-c]quinolin-1-yl)ethyl)methanesulfonamide]
< 1 | > 20 | CCOCc1nc2c(N)nc3cc(Cc4ccc(CCN)cc4)ccc3c2n1CC(C)(C)OCCO [Compound 72, 2-((1-(4-amino-7-(4-(2-aminoethyl)benzyl)-2-(ethoxymethyl)-1H-imidazo[4,5-c]quinolin-1-yl)-2-methylpropan-2-yl)oxy)ethan-1-ol]
< 1 | > 20 | CCOCc1nc2c(N)nc3cc(Cc4ccc(CCN)cc4)ccc3c2n1CC(C)(C)OCCNC(=O)C(C)(C)N [Compound 21]
> 10 | > 20 | CCOCc1nc2c(N)nc3cc(Cc4ccccc4)ccc3c2n1CCC(O)C(F)(F)F (centres unmarked) [Compound 46, 4-(4-amino-7-benzyl-2-(ethoxymethyl)-1H-imidazo[4,5-c]quinolin-1-yl)-1,1,1-trifluorobutan-2-ol]
